Here are results for 1 molecule from patent publication US20050143336A1 (priority 2003, published 2005).

The structures appear in SMILES notation. Like-named read-outs stand apart in the source and are kept apart here. Bounds are passed on as bounds.

Series [1] concerns C3H mice.
Series [2] has as its system FUS1 protein expression in the lungs. The following applies: naproxen 15 mg/kg orally 2 hour prior to i.v. DOTAP:Chol-FUS1 complex vs complex alone. The method, then: In vivo treatment of immunocompetent animals by intravenous injection of DOTAP:Cholesterol-FUS1 complex. Female C3H mice were divided into 3 groups (n=12/group). […] Lung tissues were later homogenized, and total protein lysates prepared. Protein concentration in the lysate were determined by the BCA method and analyzed for FUS1 expression by western blot analysis. FUS1 protein was detected using a anti-FUS1 antibody. Untreated animals served as controls.

The next series concerns AP-1. The series is described as follows: AP-1 DNA binding activity, electrophoretic mobility shift assay in MRC-9 cells. The following applies: naproxen pretreatment before FUS1-nanoparticles. Format: cell-based, Human. On the technique in general: A gel shift assay detects complexes by their altered migration in electrophoresis.
The conditions of series [3]: 15 mg/kg orally. The procedure:
At indicated times after injection, blood and organ was collected at different time points. TNF-α, IL-6, IL-1a and IFN-γ levels in serum (C) and TNF-α, IL-6 (D) in organs were determined using specific immunoassay kit. Data represent means±SD.
Animals were euthanized at 2, 4, 6, and 15 hours after treatment, and blood was collected. Blood samples were stored at −80° C. until all samples were collected. They were then submitted to the Drug Analysis Core Facility at M.D. Anderson Cancer Center.

Series [4] concerns p38MAPK, pJNK, p44/42MAPK, pATF2, pc-JUN, COX-2 in lung tissues. Kind of series: Inflammation-associated signaling molecules in lung tissues after FUS1-nanoparticles (western blot). The conditions noted are these: naproxen prior to FUS1-nanoparticles. Format: in vivo, C3H mice.
Series [5] relates to p38MAPK, JNK, p44/42 MAPK, ATF2, cJun, STAT3, COX-2 in RAW 264.7 cells. The series is described as follows: Signaling molecules in RAW 264.7 macrophage cells transfected with FUS1-nanoparticle (western blot). Format: cell-based, Mouse. The method, then: In vitro experiments. To determine the effect of nanoparticle-FUS1 complex on the activation of signaling molecules associated with inflammation, RAW macrophage cells were seeded in six-well plates (1×10^6 cells/well) and incubated overnight at 37° C. and 5% CO2. The following day, tissue culture medium was replaced with fresh 0.2% medium and incubated overnight at 37° C. and 5% CO2. […] Two-three hours after treatment, cells were transfected with FUS1-nanoparticle (2.5 μg DNA) in 0.2% serum medium. Cells were harvested at different time-points (2 h, 4 h, 15 h) after transfection, washed, and cell lysates prepared as previously described (Ramesh et al., 2001a). Untransfected cells treated with PBS served as control in these experiments. Cell lysates were subjected to western blotting analysis and probed with various antibodies as previously described (Ito et al., 2003). In all the experiments, β-actin was detected using anti-β-actin antibody (Sigma Chemicals, St. Louis, Mo.) as a measure of internal loading control.
On the technique in general: Immunoblotting shows a protein as a band on a membrane.

The test system of series [6] is luciferase expression in RAW 264.7 cells. The conditions noted are these: RAW 264.7, 0.5 mM naproxen pretreatment.
Protocol: To determine the effect of inhibitors on transgene expression, cells were transfected with a marker gene, luciferase (luc), complexed with nanoparticle. All other experimental conditions were the same as described above. […] Luciferase expression was expressed as relative light units per mg of protein (RLU/mg). Assays were performed in triplicates. Experiments were performed two times and the results represented as the average of two separate experiments.
The subject of a further series is lung tumor cells. The conditions noted are these: luc-nanoparticles in the presence of naproxen.
In series [7] the test system is C3H mice. Format: in vivo. The conditions noted are these: for protection: alive on day 14. The method, then: In vivo treatment of immunocompetent animals by intravenous injection of DOTAP:Cholesterol-FUS1 complex. Female C3H mice were divided into 3 groups (n=5/group). […] Complexes were injected intravenously via tail vein in a total volume of 200 μl. Animals were monitored initially at 1, 2, 6, 24, 48 hr and later every day until day 14. Animals that appeared morbid or moribund were euthanized by CO2 inhalation and various organs (lung, liver, kidneys, spleen, heart) were collected in buffered formalin and submitted for histopathological examination. Organs were also collected from animals that were dead, and these were submitted for histopathological analyses.

Protocol for AP-1: Electrophoretic mobility shift assay (EMSA). MRC-9 cells were seeded in six well plates at 1.3×10^6 cells/well for EMSA. […] Cells were harvested at 2, 4 and 15 h after transfection and nuclear extracts prepared. To the nuclear extracts (10 μg), DNA binding reaction mixture containing [γ-^32P]-ATP radiolabeled AP-1 oligonucleotide and 0.5 μg poly (dI-dC) were added and incubated at 25° C. for 30 min in 5× gel shift binding buffer [20% glycerol, 5 mM MgCl2 2.5 mM EDTA, 2.5 mM DTT, 250 mM NaCl, 50 mM Tris-HCl (pH 7.5)]. The complexes were subsequently resolved on 5% nondenaturing polyacrylamide gels in 0.5×Tris-borate EDTA buffer for 1 h 30 min at 300 V. The bands were visualized by autoradiography.

In the case of `COc1ccc2cc([C@H](C)C(=O)O)ccc2c1` [Naproxen, naproxen], the percentage of survival in the series on C3H mice [1] (naproxen 5 mg/kg orally 2 to 3 h before FUS1-nanoparticle (100 μg FUS1)) is recorded as 50%; with C3H mice [1] (naproxen 15 mg/kg orally 2 to 3 h before FUS1-nanoparticle (100 μg FUS1)) it was 100%. The “FUS1 protein expression in the lungs” value in series [2] is given as “No significant differences”. In addition, the “AP-1 DNA binding activity” value in the series with AP-1 is given as “inhibition of AP-1 activity”. In [3], the “maximum levels of naproxen in the blood” value is reported as 3.5 μg/200 μl of blood. Besides, the “time by which naproxen reached baseline levels” value in series [3] was ≤ 15 h. In addition, in series [4], the “activation of signaling molecules in lung” value is on record as “markedly suppressed”. In series [5] (RAW 264.7, 0.5 mM naproxen pretreatment, 2 and 4 h), the “p38MAPK, pJNK, pATF-2 and pcjun” value is listed as “significantly inhibited”. For the same molecule, the “phosphorylation of STAT 3” value in series [5] (RAW 264.7, 0.5 mM naproxen, 4 and 15 h) was “inhibited”. Moreover, the “expression of COX-2” value in series [5] (RAW 264.7, 0.5 mM naproxen, 4 h) is recorded as “inhibited”. In addition, the “transgene (luciferase) expression” value in series [6] is reported as “did not inhibit transgene (luciferase) expression but rather slightly enhanced the transgene expression over time”. The transgene expression entry in the series on lung tumor cells is reported as “Enhanced transgene expression”. Besides, the protection in the series with C3H mice [7] (naproxen 5 mg/kg orally 2 hour prior to complex (100 μg DNA) i.v.) was 60%; in the series on C3H mice [7] (naproxen 15 mg/kg orally 2 hour prior to complex (100 μg DNA) i.v.), 100%. Besides, in the series with C3H mice [7] (naproxen before complex, 15 hr), the “Diagnosis (histopathology)” value is listed as “almost completely prevented all the inflammatory features except moderate lymphoid atrophy spleen”.
